For one assay, the system named is HFF. The experiment in a line: cells. Particulars: Homo sapiens.
For a further assay, the system named is T-cell. The assay is described as follows: cells. To be noted: Homo sapiens.
The nature of the next assay: cells. Particulars: Homo sapiens, HUO3.
For assay [1], the target named is Tyrosine-protein kinase JAK1 (Homo sapiens, UniProt P23458).
The target in assay [2] is Tyrosine-protein kinase JAK2 (Homo sapiens, UniProt O60674).
Tyrosine-protein kinase JAK2, sequence (O60674 whole entry): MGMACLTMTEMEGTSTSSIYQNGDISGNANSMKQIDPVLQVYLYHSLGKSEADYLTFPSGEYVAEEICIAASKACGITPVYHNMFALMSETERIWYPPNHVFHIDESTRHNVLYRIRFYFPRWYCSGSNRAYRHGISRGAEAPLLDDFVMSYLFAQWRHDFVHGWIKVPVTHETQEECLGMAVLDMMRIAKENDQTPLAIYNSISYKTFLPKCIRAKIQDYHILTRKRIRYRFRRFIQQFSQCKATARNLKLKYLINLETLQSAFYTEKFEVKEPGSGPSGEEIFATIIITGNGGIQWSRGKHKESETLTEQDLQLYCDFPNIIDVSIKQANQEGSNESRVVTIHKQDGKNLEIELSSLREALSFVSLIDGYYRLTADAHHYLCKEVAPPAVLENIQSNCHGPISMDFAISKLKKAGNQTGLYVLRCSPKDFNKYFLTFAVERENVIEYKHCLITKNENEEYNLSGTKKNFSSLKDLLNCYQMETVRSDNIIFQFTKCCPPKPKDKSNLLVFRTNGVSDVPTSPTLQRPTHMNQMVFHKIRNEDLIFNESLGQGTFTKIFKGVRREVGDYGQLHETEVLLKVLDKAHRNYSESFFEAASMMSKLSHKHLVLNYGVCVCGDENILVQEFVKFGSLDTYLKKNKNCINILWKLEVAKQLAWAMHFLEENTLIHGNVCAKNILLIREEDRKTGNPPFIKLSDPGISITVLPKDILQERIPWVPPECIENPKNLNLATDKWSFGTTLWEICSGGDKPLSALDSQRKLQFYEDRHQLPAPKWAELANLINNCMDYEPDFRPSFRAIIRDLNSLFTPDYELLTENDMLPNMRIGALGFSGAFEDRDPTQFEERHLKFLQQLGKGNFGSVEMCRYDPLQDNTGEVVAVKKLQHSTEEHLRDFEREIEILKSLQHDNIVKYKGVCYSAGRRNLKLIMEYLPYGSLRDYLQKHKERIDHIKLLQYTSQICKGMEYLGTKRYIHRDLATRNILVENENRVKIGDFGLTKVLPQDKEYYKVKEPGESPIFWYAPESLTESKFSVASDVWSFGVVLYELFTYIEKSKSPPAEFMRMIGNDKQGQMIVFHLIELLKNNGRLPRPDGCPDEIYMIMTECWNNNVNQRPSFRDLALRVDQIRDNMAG

Tyrosine-protein kinase JAK1, sequence (P23458 whole entry): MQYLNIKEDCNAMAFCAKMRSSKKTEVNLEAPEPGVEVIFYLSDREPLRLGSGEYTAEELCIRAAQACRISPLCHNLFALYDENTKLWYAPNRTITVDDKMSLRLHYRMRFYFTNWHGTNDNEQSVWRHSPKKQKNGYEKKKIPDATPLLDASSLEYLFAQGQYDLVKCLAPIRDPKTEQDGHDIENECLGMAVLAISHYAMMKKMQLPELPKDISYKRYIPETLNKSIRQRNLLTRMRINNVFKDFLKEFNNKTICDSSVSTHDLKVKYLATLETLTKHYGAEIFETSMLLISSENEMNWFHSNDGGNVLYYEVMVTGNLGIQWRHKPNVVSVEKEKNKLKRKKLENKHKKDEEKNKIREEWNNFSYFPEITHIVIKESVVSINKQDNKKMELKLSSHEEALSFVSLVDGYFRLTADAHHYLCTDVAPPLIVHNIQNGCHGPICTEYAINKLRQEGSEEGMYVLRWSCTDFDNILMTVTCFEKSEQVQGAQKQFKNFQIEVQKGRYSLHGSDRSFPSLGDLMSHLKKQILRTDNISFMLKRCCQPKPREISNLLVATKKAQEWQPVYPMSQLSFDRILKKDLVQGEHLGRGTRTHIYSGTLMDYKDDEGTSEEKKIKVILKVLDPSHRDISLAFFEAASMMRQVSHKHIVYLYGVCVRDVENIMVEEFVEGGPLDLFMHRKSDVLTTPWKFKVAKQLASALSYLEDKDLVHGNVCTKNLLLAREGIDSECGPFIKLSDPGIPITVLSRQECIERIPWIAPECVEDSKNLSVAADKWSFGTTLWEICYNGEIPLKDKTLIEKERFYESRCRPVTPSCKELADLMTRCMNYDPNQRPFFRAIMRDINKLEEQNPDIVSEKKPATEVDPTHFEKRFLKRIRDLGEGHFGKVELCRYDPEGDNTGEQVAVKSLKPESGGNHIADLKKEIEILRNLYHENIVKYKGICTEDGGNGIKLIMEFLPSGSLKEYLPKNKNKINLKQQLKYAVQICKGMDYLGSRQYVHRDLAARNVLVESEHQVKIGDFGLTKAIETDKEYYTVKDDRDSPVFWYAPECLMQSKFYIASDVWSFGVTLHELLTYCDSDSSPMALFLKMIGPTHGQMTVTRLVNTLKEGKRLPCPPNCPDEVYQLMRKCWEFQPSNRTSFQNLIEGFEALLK
Description for HFF: Inhibition of fetal calf serum-induced proliferation of human foreskin fibroblast assessed as [3H]thymidine incorporation after 4 days by scintillation counting
Description for T-cell: Inhibition of IL2-induced proliferation of human T cells assessed as [3H]thymidine incorporation after 72 hrs by scintillation counting

Turning to `c1ccc2c(c1)C1CCCCC1N2c1ncnc2[nH]ccc12` (stereo not given), the half-maximal inhibitory concentration (IC50) was determined as 10 µM in the assay with HFF and 3.69 µM in the assay with T-cell.

`N#C/C(=C\c1ccc(O)c(O)c1)C(=O)NCc1ccccc1`: the IC50 is 5.58 µM in the assay on HFF; 7.56 µM in the assay “cells”; 3.38 µM in assay [1]; above 10 µM in assay [2]; 3.75 µM with T-cell.

`COc1cc2ncnc(Nc3ccc(O)c(Br)c3)c2cc1OC`: the IC50 with HFF was 6.34 µM; in assay [1] it was above 10 µM; in assay [2], above 10 µM; with T-cell, 5.09 µM.

For the compound `COc1cc2ncnc(Nc3ccc(O)cc3)c2cc1OC` [WHI-P131], the IC50 (in the assay “cells”; in assay [1]; in assay [2]; in the assay with T-cell) was above 10 µM throughout.
